What was measured:
[1] = system: ShHTL7–ShMAX2 interaction; test: Y2H assay ShHTL7-ShMAX2; assay type: cell-based, Striga hermonthica; settings: 5 μM ligand
Excerpt: (§1) Full-length sequences of ShD14, ShHTL1, ShHTL3, ShHTL4, ShHTL7, and AtHTL were cloned into the pGBKT7 vector as bait (Clontech), and the coding regions of ShMAX2 and AtMAX2 were cloned into the pGADT7 vector as prey (Clontech). MAX2 was supposed to be unstable without ASK1. Therefore, AtASK1 was cloned into the N terminus of ShMAX2 and AtMAX2 with a 16-residue linker for co-expression. The bait and prey plasmids were co-transformed into the yeast (Saccharomyces cerevisiae) strain Y2HGold (Clontech) by the lithium acetate-mediated method. The presence of both plasmids was confirmed by growth on SD/-Leu/-Trp (-LT) plates. […] The plates were incubated for 5 days at 30 °C.

AtD14 = biological target: AtD14; set-up: method as in earlier work; settings: read-out: Kd of rac-GR24 binding to AtD14; quoted in reviewer comment; cited from earlier work
ShHTL4 = test: SL hydrolysis assay (HPLC), ShHTL4; assay type: biochemical, Striga hermonthica; settings: 3.2 μM SL, 1.6 μM enzyme, 30 min, 30 °C
Method: (§2) Next, 50 μL of 1 M HCl was added to each reaction solution, and the reaction solutions were extracted 3 times with 300 μL of ethyl acetate. The ethyl acetate layers were combined and dried in vacuo and were then dissolved in 50 μL of methanol. For each layer, 5 μL was applied to the reverse-phase HPLC (Shimadzu LC-2030C). The analytical column was a CAPCELL CORE C18 (Φ 2.1 × 100 mm, Shiseido). The analytes were eluted under gradient conditions at a flow rate of 0.20 mL min^−1 with a linear ramp of methanol to 90% methanol at 19 min, which was maintained for 6 min before resetting to the original conditions. […] The percentage of hydrolyzed SL was calculated and used for statistical analyses. One-tailed unpaired Student’s t-tests were used for comparison between buffer samples and enzyme samples.

ShHTL3 [2] = test: SL hydrolysis assay (HPLC), ShHTL3; assay type: biochemical, Striga hermonthica; settings: 3.2 μM SL, 1.6 μM enzyme, 30 min, 30 °C
Method: as §2

ShHTL7 [3] = biological target: T1, ShHTL7 (Striga hermonthica, UniProt A0A0M3PNA2); test: SL hydrolysis assay (HPLC), ShHTL7; assay type: biochemical; settings: 3.2 μM SL, 1.6 μM enzyme, 30 min, 30 °C
T1 sequence (A0A0M3PNA2 1-271): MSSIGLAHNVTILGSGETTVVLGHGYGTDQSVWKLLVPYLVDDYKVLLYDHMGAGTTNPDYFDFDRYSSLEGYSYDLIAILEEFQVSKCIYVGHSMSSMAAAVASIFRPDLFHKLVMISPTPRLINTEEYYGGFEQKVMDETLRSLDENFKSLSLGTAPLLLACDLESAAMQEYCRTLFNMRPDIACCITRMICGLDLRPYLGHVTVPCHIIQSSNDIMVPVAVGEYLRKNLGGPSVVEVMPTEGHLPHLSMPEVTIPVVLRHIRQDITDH
Method: as §2

ShHTL3 [4] = system: ShHTL3; set-up: method as in PMID 27507097; settings: cited from earlier work
ShMAX2 and ShD14 = test: In vitro pull-down ShD14-ShMAX2; assay type: binding, Striga hermonthica; settings: 50 μM ligand, CBB staining
Method: (§3) Ni-NTA pull-down assays were performed with purified ShMAX2 or AtMAX2 as the bait and […]14, or GST-AtD14 as the prey. The molecular weight of the HTL/D14 proteins is nearly the same as that of ASK1; therefore, the HTL/D14 proteins were fused to GST, increasing their molecular weight for detection on SDS-PAGE gels. […] The protein complexes were then eluted with 100 μL of elution buffer containing 50 mM Bis-Tris, pH 6.8, 500 mM NaCl, and 500 mM imidazole and subjected to SDS-PAGE analysis.

ShMAX2 and ShHTL4 = test: In vitro pull-down ShHTL4-ShMAX2; assay type: binding, Striga hermonthica; settings: 50 μM ligand, CBB staining
Method: as §3

ShD14 [5] = test: SL hydrolysis assay (HPLC), ShD14; assay type: biochemical, Striga hermonthica; settings: 3.2 μM SL, 1.6 μM enzyme, 30 min, 30 °C
Method: as §2

ShHTL7 L124F/T190F/C194F = ShHTL7 L124F/T190F/C194F (Striga hermonthica, UniProt A0A0M3PNA2, C194F/L124F/T190F); test: YLG competition assay, ShHTL7 triple mutation; assay type: biochemical
Method: (§4) The YLG assays were conducted as previously described[28] with minor modifications. Ten microliters of 0.1 mg mL^−1 ShHTL7 protein in a reaction buffer containing 20 mM HEPES, pH 7.0, 150 mM NaCl and 80 μL of reaction buffer were mixed in a 96-well black plate (Grenier). Ten microliters of 10 μM YLG was added to the solution and incubated at 25 °C for 1 h prior to measurement. The fluorescence intensity was measured using a SpectraMax® iD5 Multi-Mode Microplate Reader (Molecular Devices). Measurements were performed at room temperature under a 480 nm excitation wavelength, a 530 nm emission wavelength, a manual PMT of 500, and a read height of 1.00 mm. The fluorescence can be detected if YLG is hydrolyzed. The RFU (relative fluorescence unit) was calculated by subtracting the fluorescence of the buffer (without protein) and then dividing by the fluorescence of wild-type ShHTL7. […]
(§5) in a previous study6, the enzymes were incubated with YLG at the indicated concentrations. The RFU (relative fluorescence units) was calculated by dividing the fluorescence of hydrolysis at 10 μM YLG by wild type (WT) ShHTL7 after subtracting the fluorescence of the buffer. The Km values were calculated from a Michaelis-Menten plot using GraphPad Prism software and are shown in the plots. […]
(§6) The inhibition constant Ki was calculated according to the Cheng-Prusoff equation7. […]

ShD14–ShMAX2 interaction = test: Y2H assay ShD14-ShMAX2; assay type: cell-based, Striga hermonthica; settings: 5 μM ligand
Excerpt: as §1

ShHTL1 [6] = biological target: T2, ShHTL1 (Striga hermonthica, UniProt A0A0M4AV81); test: SL hydrolysis assay (HPLC), ShHTL1; assay type: biochemical; settings: 3.2 μM SL, 1.6 μM enzyme, 30 min, 30 °C
Method: as §2

ShHTL1 [7] = biological target: T2, ShHTL1; test: ITC binding to ShHTL1; settings: 750 μM ShHTL1 into 100 μM rac-GR24, 20 °C
Method: The binding assays were performed using a MicroCal iTC200 isothermal titration calorimeter (GE Healthcare). Prior to the ITC experiments, concentrated ShD14, ShHTL1, ShHTL4, and ShHTL7 were exchanged into a buffer consisting of 20 mM HEPES (pH 8.0) and 150 mM NaCl to remove dithiothreitol and were then adjusted to a final concentration of 150 μM. The sample cell was filled with protein solution (204 μL). Nineteen consecutive 2.0-μL aliquots of 3 mM KAR1 (3-methyl-2H-furo [2,3-c] pyran-2-one) were injected into a prepared protein solution at 150 s intervals at 20 °C. The first injection volume was 0.4 μL, and the observed thermal peak was excluded from the data analysis. A negative control was obtained by titrating 3 mM KAR1 into the buffer (20 mM HEPES, pH 8.0, 150 mM NaCl) in the same manner. Data fitting was performed in “one set of sites” mode, and KD values were calculated using Origin software provided by MicroCal.
Binding analyses of ShHTLs and ShD14 with KAR1. The ITC assays were performed by adding 3 mM KAR1 to 150 μM ShHTL1 (a), ShHTL4 (b), ShHTL7
(c), ShD14 (d) and AtHTL (e).
ShHTL1 and AtHTL were fitted using the MicroCal origin software with the “one binding site” model.

AtHTL = biological target: T3, AtHTL (Arabidopsis thaliana, UniProt Q9SZU7); settings: cited from earlier work
T3 sequence (Q9SZU7 1-270): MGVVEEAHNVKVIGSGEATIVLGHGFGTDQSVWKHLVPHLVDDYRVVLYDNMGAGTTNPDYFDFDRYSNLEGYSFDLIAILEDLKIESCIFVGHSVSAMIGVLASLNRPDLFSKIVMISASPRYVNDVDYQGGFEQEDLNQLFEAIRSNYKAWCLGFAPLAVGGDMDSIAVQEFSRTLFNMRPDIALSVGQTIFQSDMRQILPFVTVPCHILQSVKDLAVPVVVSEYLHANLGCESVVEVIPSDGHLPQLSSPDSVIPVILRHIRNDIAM

ShHTL7 [8] = biological target: T1, ShHTL7; test: YLG competition assay, WT ShHTL7; assay type: biochemical
Method: as §4, §5, §6

ShHTL7 T190F/C194F [9] = biological target: ShHTL7 T190F/C194F (Striga hermonthica, UniProt A0A0M3PNA2, C194F/T190F); test: YLG competition assay, ShHTL7 double mutation; assay type: biochemical
Method: as §4, with “ShHTL7. The experiment was repeated 6 times independently.” for “ShHTL7.”
as §5, with “plots. (d) Competition assays with synthetic SL rac-GR24. WT and ShHTL7 protein” for “plots.”
(§7) The inhibition constant Ki was calculated according to the Cheng-Prusoff equation7. Kirac-GR24 values were 0.07 ± 0.01 μM for WT; 0.15 ± 0.04 μM for the T190F/C194F double mutation; and 11.85 ± 3.43 μM for the L124F/T190F/C194F triple mutation as shown in the plots. The experiment was repeated 4 times independently, and each replicate is represented by a black dot.
(§8) The mean values are fitted, and the error bars represent the standard deviation (S.D.) of three replicates (means ± S.D., n=3).

ShHTL7 T190F/C194F [10] = test: YLG competition assay, ShHTL7 double mutation; assay type: biochemical, Striga hermonthica; settings: from Ki in YLG competition assays
Method: as §4, with “ShHTL7. The experiment was repeated 6 times independently.” for “ShHTL7.”
as §5, with “plots. (d) Competition assays with synthetic SL rac-GR24. WT and ShHTL7 protein” for “plots.”
as §7, §8

[…] 1 (PYR1) = biological target: […] 1 (PYR1); set-up: method as in PMID 21847091; settings: read-out: KD of PYR1 for ABA; cited from earlier work
[11] = biological target: PYR1 in complex with co-receptor TYPE 2C PROTEIN PHOSPHATASE (PP2C); set-up: method as in PMID 21847091; settings: cited from earlier work
ShD14 [12] = system: ShD14; set-up: method as in PMID 26293962; settings: cited from earlier work
ShD14 [13] = test: YLG hydrolysis assay, ShD14; assay type: biochemical, Striga hermonthica; settings: fluorescence, repeated YLG hydrolysis assays
Method: The YLG assays were conducted as previously described[28] with minor modifications. […] The fluorescence intensity was measured using a SpectraMax® iD5 Multi-Mode Microplate Reader (Molecular Devices). Measurements were performed at room temperature under a 480 nm excitation wavelength, a 530 nm emission wavelength, a manual PMT of 500, and a read height of 1.00 mm. The fluorescence can be detected if YLG is hydrolyzed. […] The experiment was repeated 6 times independently. page 4: Supplementary Figure 4. YLG hydrolysis assays of OsD14 and ShD14. RFU (relative fluorescence units) was calculated by dividing the fluorescence of OsD14. The fluorescence can be detected under a 490 nm excitation wavelength and a 520 nm emission wavelength if YLG is hydrolyzed. The experiments were repeated 4 (OsD14) or 6 times independently. Columns represent the mean RFU, and the error bars represent the standard deviation (S.D.). Each replicate is indicated by a black circle.

T2 sequence (A0A0M4AV81 entry or part of it): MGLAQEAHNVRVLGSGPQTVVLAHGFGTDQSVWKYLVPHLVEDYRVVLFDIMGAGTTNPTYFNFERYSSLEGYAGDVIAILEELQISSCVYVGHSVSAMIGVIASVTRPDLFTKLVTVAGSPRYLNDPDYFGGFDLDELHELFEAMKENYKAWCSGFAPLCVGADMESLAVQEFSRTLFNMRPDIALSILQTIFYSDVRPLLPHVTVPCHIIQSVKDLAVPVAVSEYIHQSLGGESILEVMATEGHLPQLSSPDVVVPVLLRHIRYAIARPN
ShHTL7 T190F/C194F (Striga hermonthica, UniProt A0A0M3PNA2, C194F/T190F), sequence (A0A0M3PNA2 whole entry T190F/C194F): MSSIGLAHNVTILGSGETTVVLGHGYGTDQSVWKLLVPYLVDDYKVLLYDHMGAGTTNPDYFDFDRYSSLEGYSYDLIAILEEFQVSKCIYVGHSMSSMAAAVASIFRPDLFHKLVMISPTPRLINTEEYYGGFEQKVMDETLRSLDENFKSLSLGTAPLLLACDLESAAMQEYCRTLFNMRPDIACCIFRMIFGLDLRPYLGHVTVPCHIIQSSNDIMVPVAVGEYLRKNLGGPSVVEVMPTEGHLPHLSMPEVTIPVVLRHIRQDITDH
ShHTL7 L124F/T190F/C194F, sequence (A0A0M3PNA2 whole entry L124F/T190F/C194F): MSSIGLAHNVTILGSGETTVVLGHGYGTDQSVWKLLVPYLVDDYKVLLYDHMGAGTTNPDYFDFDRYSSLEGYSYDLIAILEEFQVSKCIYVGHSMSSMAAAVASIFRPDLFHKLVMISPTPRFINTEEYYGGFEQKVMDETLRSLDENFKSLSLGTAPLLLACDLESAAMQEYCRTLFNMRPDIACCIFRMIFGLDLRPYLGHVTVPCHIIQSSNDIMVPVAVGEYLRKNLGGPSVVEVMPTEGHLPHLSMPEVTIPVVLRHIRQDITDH

## CC1=CC(O/C=C2/C(=O)OC3c4ccccc4CC23)OC1=O (racemic) [rac-GR24]
[1]
  ligand-induced ShHTL7-ShMAX2 interaction: triggered the interaction of ShHTL7 with ShMAX2
AtD14
  Kd: 0.3 µM
ShHTL4
  hydrolytic activity of ShHTL4 toward SL: able to hydrolyze
ShHTL3 [2]
  hydrolytic activity of ShHTL3 toward SL: no hydrolytic activity
ShHTL7 [3]
  hydrolytic activity of ShHTL7 toward SL: able to hydrolyze
ShHTL3 [4]
  binding of rac-GR24 to ShHTL3: can bind to KAR1 but not rac-GR24
ShMAX2 and ShD14
  ligand-dependent ShMAX2-ShD14 interaction: direct interaction was detected between ShMAX2 and ShD14 in a rac-GR24-dependent manner
ShMAX2 and ShHTL4
  ligand-dependent ShMAX2-ShHTL4 interaction: able to interact with ShHTL4 of the divergent clade in the presence of rac-GR24
ShD14 [5]
  hydrolytic activity of ShD14 toward SL: able to hydrolyze
ShHTL7 L124F/T190F/C194F
  IC50: 13.9 ± 3.41 µM
  Ki: 11.8 ± 3.43 µM
ShD14–ShMAX2 interaction
  ligand-induced ShD14-ShMAX2 interaction: rac-GR24-dependent ShD14–ShMAX2 interaction was also observed
ShHTL1 [6]
  hydrolytic activity of ShHTL1 toward SL: no hydrolytic activity
ShHTL1 [7]
  binding of rac-GR24 to ShHTL1: no detectable binding
AtHTL
  hydrolysis of rac-GR24 by AtHTL: able to hydrolyze rac-GR24 to some extent
ShHTL7 [8]
  IC50: 0.17 ± 0.01 µM
  Ki: 0.07 ± 0.01 µM
ShHTL7 T190F/C194F [9]
  IC50: 0.21 ± 0.05 µM
  Ki: 0.15 ± 0.04 µM
ShHTL7 T190F/C194F [10]
  decrease in rac-GR24 binding affinity, T190F/C194F vs ShHTL7: twofold decrease

## CC1=CC(OC=C2C(=O)OC3C4=C(CCCC4(C)C)CC23)OC1=O (stereo not drawn) [5DS, 5-deoxystrigol]
ShHTL4
  hydrolytic activity of ShHTL4 toward SL: able to hydrolyze
ShHTL7 [3]
  hydrolytic activity of ShHTL7 toward SL: able to hydrolyze
ShD14 [5]
  hydrolytic activity of ShD14 toward SL: able to hydrolyze
ShHTL1 [6]
  hydrolytic activity of ShHTL1 toward SL: weak 5DS hydrolytic activity

## CC1=CC(=O)CC(C)(C)[C@@]1(O)/C=C/C(C)=C\C(=O)O [ABA, abscisic acid]
[…] 1 (PYR1)
  Kd: 97 µM
[11]
  binding affinities for ABA, PYR1-PP2C complex: nanomolar range

## CC1=C[C@H](O/C=C2/C(=O)O[C@@H]3c4ccccc4C[C@H]23)OC1=O [GR24^ent−5DS]
AtHTL
  hydrolysis of GR24^ent−5DS by AtHTL: able to hydrolyze GR24^ent−5DS

## CCOC(=O)c1ccccc1-c1c2ccc(=O)cc-2oc2cc(OC3C=C(C)C(=O)O3)ccc12 (stereo not drawn) [YLG, Yoshimulactone Green]
ShD14 [12]
  hydrolytic activity of ShD14 toward YLG, previous study: no hydrolytic activity toward YLG
ShD14 [13]
  hydrolysis of YLG by ShD14: not YLG

## CCOC(=O)c1ccccc1-c1c2ccc(=O)cc-2oc2cc(OC3C=CC(=O)O3)ccc12 (stereo not drawn) [dYLG, desmethyl-YLG]
AtHTL
  hydrolysis of dYLG by AtHTL: hydrolyze the synthesized desmethyl-YLG (dYLG)
